# Data as given in BindingDB's records for doi:10.1016/j.bmcl.2012.11.020 (Glaxosmithkline, 2012).
# Target: Serine/threonine-protein kinase B-raf (Homo sapiens, UniProt P15056)
# Assay: Inhibition of B-Raf (unknown origin) expressed in mouse 3T3 cells co-expressing FLAG-tagged MEK1 assessed as inhibition of MEK1 phosphorylation after 2 hrs by ELISA
# Serine/threonine-protein kinase B-raf, sequence (P15056 whole entry): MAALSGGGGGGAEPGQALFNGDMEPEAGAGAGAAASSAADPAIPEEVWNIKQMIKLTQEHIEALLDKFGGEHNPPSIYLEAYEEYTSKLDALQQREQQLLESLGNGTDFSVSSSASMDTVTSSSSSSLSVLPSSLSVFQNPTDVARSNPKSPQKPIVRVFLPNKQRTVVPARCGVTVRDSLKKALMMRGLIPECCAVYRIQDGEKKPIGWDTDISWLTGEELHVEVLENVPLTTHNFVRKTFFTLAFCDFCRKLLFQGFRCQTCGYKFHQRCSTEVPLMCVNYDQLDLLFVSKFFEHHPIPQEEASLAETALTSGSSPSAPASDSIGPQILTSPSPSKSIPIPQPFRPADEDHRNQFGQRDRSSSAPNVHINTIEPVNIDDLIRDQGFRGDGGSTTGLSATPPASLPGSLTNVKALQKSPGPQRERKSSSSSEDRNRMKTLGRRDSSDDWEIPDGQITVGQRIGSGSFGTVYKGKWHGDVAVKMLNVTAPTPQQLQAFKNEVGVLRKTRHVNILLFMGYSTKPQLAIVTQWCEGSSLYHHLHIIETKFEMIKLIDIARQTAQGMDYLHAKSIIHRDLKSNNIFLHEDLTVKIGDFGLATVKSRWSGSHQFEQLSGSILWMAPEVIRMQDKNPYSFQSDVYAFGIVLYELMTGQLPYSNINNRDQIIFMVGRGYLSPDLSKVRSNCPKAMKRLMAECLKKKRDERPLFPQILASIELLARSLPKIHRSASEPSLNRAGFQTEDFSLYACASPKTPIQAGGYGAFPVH
row,IC50 [µM],SMILES
1,> 10,Nc1ncc(-c2cccnc2)c2scc(-c3cccc(NC(=O)Nc4ccc(OCc5ccccc5)cc4)c3)c12
2,0.7,COc1cccc(NC(=O)Nc2cccc(-c3csc4c(-c5cccnc5)cnc(N)c34)c2)c1
3,4.1,Nc1ncc(-c2cccnc2)c2scc(-c3cccc(NC(=O)NC4CCCCC4)c3)c12
4,> 10,Cc1noc(C)c1NC(=O)Nc1cccc(-c2csc3c(-c4cccnc4)cnc(N)c23)c1
5,> 10,Nc1ncc(-c2cccnc2)c2scc(-c3cccc(NC(=O)C4CCCCC4)c3)c12
